In general, MIC refers to the least concentration at which growth counts as inhibited. Broadly, the melting point is the temperature, or range, at which the solid turns liquid.

Converted amounts (≈) assume the structure as drawn. Bounds are passed on as bounds.

We go through six molecules from publication PMC6968633, “Synthesis, antibacterial and anticancer activity, and docking study of aminoguanidines containing an alkynyl moiety” (Journal of Enzyme Inhibition and Medicinal Chemistry, 2019).

The test system of data set [1] is Staphylococcus aureus ATCC 33591. Briefly: Antibacterial MIC, multidrug-resistant clinical isolate. The format is cell-based. The conditions noted are these: Staphylococcus aureus, ATCC33591; multidrug-resistant S. aureus ATCC 33591; read-out: MIC. On the procedure:
(§1) Test bacteria were grown to mid-log phase in Mueller–Hinton broth (MHB) or Tryptone Soya Broth (TSB) and diluted 1000-fold in the same medium. Bacteria (10^5 CFU/mL) were inoculated into MHB or TSB and dispensed at 0.2 ml/well into a 96-well microtiter plate. As positive controls, gatifloxacin, moxifloxacin, norfloxacin, oxacillin, and penicillin were used. […] Bacterial growth was determined by measuring the absorption at 630 nm using a microplate reader. All experiments were carried out three times.
(§2) The evaluation of antibacterial activity of all compounds (3a–3j and 6a–6k) was performed by a serial dilution method to determine the MIC against a panel of pathogens comprising five Gram-positive strains (S. aureus (CMCC(B) 26003 and CMCC 25923), Streptococcus mutans BNCC 336931, Enterococcus faecalis CMCC 29212, and Bacillus subtilis CMCC 63501), four Gram-negative strains (E. coli (CMCC 25922 and CMCC 44568) and P. aeruginosa (CMCC 27853 and CMCC 10104)), as well as three methicillin-resistant clinical isolates (S. aureus ATCC 43300 and ATCC 33591, P. aeruginosa ATCC BAA-2111). The results are described in Tables 1 and 2. Gatifloxacin, moxifloxacin, norfloxacin, oxacillin, and penicillin were used as positive controls.

In data set [2] the test system is Staphylococcus aureus ATCC 43300. The data set is described as above. Conditions: Staphylococcus aureus, ATCC43300; multidrug-resistant S. aureus ATCC 43300; read-out: MIC. The class given is cell-based. On the procedure: as §1, §2
Data set [3] relates to Staphyiococcus aureus CMCC 25923. In words: Antibacterial MIC, serial dilution. The format is cell-based, Staphylococcus aureus. The conditions noted are these: Staphylococcus aureus, CMCC25923; S. aureus CMCC 25923, 24 h, 37 °C; read-out: MIC. On the procedure: as §1, §2
For data set [4], the system named is Pseudomonas aeruginosa CMCC 27853. Briefly: Antibacterial MIC, serial dilution. The conditions noted are these: Pseudomonas aeruginosa, CMCC27853; P. aeruginosa CMCC 27853, 24 h, 37 °C; read-out: MIC. The class given is cell-based. Here is the method: as §1, §2
The subject of data set [5] is Escherichia coli CMCC 44568. Briefly: Antibacterial MIC, serial dilution. The format is cell-based. Conditions: Escherichia coli, CMCC44568; E. coli CMCC 44568, 24 h, 37 °C; read-out: MIC. Here is the method: as §1, §2
Data set [6] relates to Staphylococcus aureus CMCC(B)26003. In words: Antibacterial MIC, serial dilution. The format is cell-based. Conditions: Staphylococcus aureus; S. aureus CMCC(B)26003, 24 h, 37 °C; read-out: MIC. Here is the method:
as §1, §2

Data set [7] has as its system Escherichia coli CMCC 25922. In words: Antibacterial MIC, serial dilution. The class given is cell-based. Conditions: Escherichia coli, CMCC25922; E. coli CMCC 25922, 24 h, 37 °C; read-out: MIC. On the procedure: as §1, §2
Data set [8] concerns Enterococcus faecalis CMCC 29212. Briefly: Antibacterial MIC, serial dilution. The format is cell-based. The conditions noted are these: Enterococcus faecalis, CMCC29212; E. faecalis CMCC 29212, 24 h, 37 °C; read-out: MIC. On the procedure: as §1, §2
For data set [9], the system named is Bacillus subtilis CMCC 63501. Briefly: Antibacterial MIC, serial dilution. Conditions: Bacillus subtilis, CMCC63501; B. subtilis CMCC 63501, 24 h, 37 °C; read-out: MIC. The class given is cell-based. On the procedure:
as §1, §2

Data set [10] has as its system Streptococcus mutans BNCC 336931. Briefly: Antibacterial MIC, serial dilution. The conditions noted are these: Streptococcus mutans, BNCC336931; S. mutans BNCC 336931, 24 h, 37 °C; read-out: MIC. The format is cell-based. Here is the method:
as §1, §2

In data set [11] the test system is Pseudomonas aeruginosa CMCC 10104. Briefly: Antibacterial MIC, serial dilution. The class given is cell-based. The conditions noted are these: Pseudomonas aeruginosa, CMCC10104; P. aeruginosa CMCC 10104, 24 h, 37 °C; read-out: MIC. Here is the method:
as §1, §2

The molecule `N=C(N)NN=Cc1ccc(C#Cc2ccc(Br)cc2)cc1` [Compound 3j, 2-(4-((4-Bromophenyl)ethynyl)benzylidene)hydrazine-1-carboximidamide] showed a melting point of 242 to 243 °C. In [1], the MIC worked out at 0.5 µg/mL (≈ 1.47 µM). In [2], the MIC was 2 µg/mL (≈ 5.86 µM). The MIC in [3] was found to be 1 µg/mL (≈ 2.93 µM). Moreover, the minimal inhibitory concentration (MIC) in [4] was greater than 128 µg/mL. In addition, the MIC in [5] turned out to be 128 µg/mL (≈ 375 µM). The MIC in data set [6] amounted to 0.5 µg/mL (≈ 1.47 µM). Besides, the MIC in data set [7] was 2 µg/mL (≈ 5.86 µM). Besides, the MIC in data set [8] was determined as 0.5 µg/mL (≈ 1.47 µM). For the same molecule, the MIC in data set [9] turned out to be 128 µg/mL (≈ 375 µM). In data set [10], the MIC turned out to be 0.5 µg/mL (≈ 1.47 µM). Also, the MIC in [11] was 128 µg/mL (≈ 375 µM).
`N=C(N)NN=Cc1ccc(C#Cc2ccc(F)cc2)cc1` [Compound 3d, 2-(4-((4-Fluorophenyl)ethynyl)benzylidene)hydrazine-1-carboximidamide] gave a melting point of 238 to 239 °C. Moreover, the MIC in [1] was 1 µg/mL (≈ 3.57 µM). In data set [2], the MIC was determined as 4 µg/mL (≈ 14.3 µM). Besides, the MIC in data set [3] was 2 µg/mL (≈ 7.14 µM). Further, the MIC in data set [4] is 8 µg/mL (≈ 28.5 µM). The MIC in data set [5] stood at 8 µg/mL (≈ 28.5 µM). In addition, in data set [6], the MIC came out at 1 µg/mL (≈ 3.57 µM). Further, the MIC in data set [7] came out at 2 µg/mL (≈ 7.14 µM). Moreover, the minimum inhibitory concentration (MIC) in [8] was found to be 1 µg/mL (≈ 3.57 µM). Also, the MIC in [9] came to 1 µg/mL (≈ 3.57 µM). For the same molecule, in data set [10], the MIC worked out at 4 µg/mL (≈ 14.3 µM). The MIC in data set [11] is 2 µg/mL (≈ 7.14 µM).
The molecule `N=C(N)NN=Cc1ccc(C#Cc2ccccc2)cc1` [Compound 3a, 2-(4-(Phenylethynyl)benzylidene)hydrazine-1-carboximidamide] had a melting point of 225 to 226 °C. In addition, the MIC in data set [3] was determined as 4 µg/mL (≈ 15.2 µM). Besides, in data set [4], the MIC was 16 µg/mL (≈ 61 µM). For the same molecule, the MIC in [5] was determined as 4 µg/mL (≈ 15.2 µM). The MIC in data set [6] amounted to 1 µg/mL (≈ 3.81 µM). Also, the MIC in data set [7] was determined as 4 µg/mL (≈ 15.2 µM). For the same molecule, the MIC in data set [8] came to 1 µg/mL (≈ 3.81 µM). For the same molecule, in data set [9], the MIC was 2 µg/mL (≈ 7.62 µM). The MIC in data set [10] turned out to be 4 µg/mL (≈ 15.2 µM). Also, the minimum inhibitory concentration (MIC) in [11] is 4 µg/mL (≈ 15.2 µM).
The molecule `N=C(N)NN=Cc1ccc(C#Cc2ccccc2F)cc1` [Compound 3b, 2-(4-((2-Fluorophenyl)ethynyl)benzylidene)hydrazine-1-carboximidamide] gave a melting point of 189 to 190 °C. In [3], the MIC is 8 µg/mL (≈ 28.5 µM). Further, in [4], the MIC worked out at 128 µg/mL (≈ 457 µM). In addition, in [5], the minimum inhibitory concentration (MIC) was determined as 8 µg/mL (≈ 28.5 µM). The MIC in [6] came to 1 µg/mL (≈ 3.57 µM). In addition, the minimal inhibitory concentration (MIC) in [7] is 4 µg/mL (≈ 14.3 µM). In addition, in data set [8], the MIC is 1 µg/mL (≈ 3.57 µM). For the same molecule, in [9], the MIC was found to be 2 µg/mL (≈ 7.14 µM). In data set [10], the MIC stood at 4 µg/mL (≈ 14.3 µM). In addition, the MIC in data set [11] is 8 µg/mL (≈ 28.5 µM).
Take `N=C(N)NN=Cc1ccc(C#CC#Cc2cccc(Cl)c2)cc1` [Compound 6f, 2-(4-((3-Chlorophenyl)buta-1,3-diyn-1-yl)benzylidene)hydrazine-1-carboximidamide]: the melting point was in the range of 198 to 201 °C. In addition, the minimal inhibitory concentration (MIC) in data set [3] was 8 µg/mL (≈ 24.9 µM). Also, the MIC in data set [4] is greater than 128 µg/mL. Moreover, in [5], the minimum inhibitory concentration (MIC) was 32 µg/mL (≈ 99.8 µM). The MIC in [6] is 1 µg/mL (≈ 3.12 µM). Besides, the MIC in data set [7] came out at 4 µg/mL (≈ 12.5 µM). Further, the minimal inhibitory concentration (MIC) in data set [8] is 0.5 µg/mL (≈ 1.56 µM). Besides, in [9], the minimal inhibitory concentration (MIC) turned out to be 4 µg/mL (≈ 12.5 µM). In data set [10], the MIC is 0.5 µg/mL (≈ 1.56 µM). Also, in data set [11], the MIC is 16 µg/mL (≈ 49.9 µM).
In turn, `N=C(N)NN=Cc1ccc(C#CC#Cc2cccc(F)c2)cc1` [Compound 6c, 2-(4-((3-Fluorophenyl)buta-1,3-diyn-1-yl)benzylidene)hydrazine-1-carboximidamide] gave a melting point of 186 to 190 °C. In addition, the MIC in [3] came out at 128 µg/mL (≈ 421 µM). Further, in [4], the MIC was greater than 128 µg/mL. Further, the minimal inhibitory concentration (MIC) in [5] is greater than 128 µg/mL. Moreover, in data set [6], the MIC is 128 µg/mL (≈ 421 µM). For the same molecule, in data set [7], the MIC is 2 µg/mL (≈ 6.57 µM). Moreover, the MIC in [8] was found to be 0.5 µg/mL (≈ 1.64 µM). In data set [9], the MIC was 2 µg/mL (≈ 6.57 µM). In addition, the minimal inhibitory concentration (MIC) in [10] was 0.5 µg/mL (≈ 1.64 µM). In [11], the minimal inhibitory concentration (MIC) stood at 4 µg/mL (≈ 13.1 µM).
